Like-named read-outs stand apart in the source and are kept apart here.
Biological target: T1, TBK1 (Homo sapiens, UniProt Q9UHD2)
T1 sequence (Q9UHD2 1-729): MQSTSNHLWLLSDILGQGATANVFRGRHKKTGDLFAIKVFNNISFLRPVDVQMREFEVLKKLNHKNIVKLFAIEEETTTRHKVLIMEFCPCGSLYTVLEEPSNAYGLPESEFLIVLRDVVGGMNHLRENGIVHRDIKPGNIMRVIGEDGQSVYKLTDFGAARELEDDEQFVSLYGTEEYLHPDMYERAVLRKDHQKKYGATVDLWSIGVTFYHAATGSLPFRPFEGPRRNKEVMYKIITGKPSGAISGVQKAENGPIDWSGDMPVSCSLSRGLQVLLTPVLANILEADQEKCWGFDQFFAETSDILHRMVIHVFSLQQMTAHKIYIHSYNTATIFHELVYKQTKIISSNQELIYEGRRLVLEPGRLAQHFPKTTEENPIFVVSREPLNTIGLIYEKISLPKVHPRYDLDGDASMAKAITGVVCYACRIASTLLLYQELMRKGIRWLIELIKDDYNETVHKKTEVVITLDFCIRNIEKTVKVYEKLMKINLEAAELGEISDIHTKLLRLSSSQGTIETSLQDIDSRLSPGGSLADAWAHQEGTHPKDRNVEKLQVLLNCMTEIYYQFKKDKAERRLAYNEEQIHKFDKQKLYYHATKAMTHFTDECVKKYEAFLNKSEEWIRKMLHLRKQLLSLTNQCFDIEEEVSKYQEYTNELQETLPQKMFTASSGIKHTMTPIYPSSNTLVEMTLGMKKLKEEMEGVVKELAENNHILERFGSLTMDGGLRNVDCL
Test: FRET-based Z'-LYTE TBK1 enzymatic assay
Type: biochemical
Set-up: purchased Thermo Scientific A31513
Details: for inhibition at 0.001 µM: compound at 1 nM, read-out: TBK1 inhibition (%) 1 nM; for IC50: mean of two separate experiments

[1] = read-out: TBK1 inhibition (%) 100 nM, compound at 100 nM, 100 µM ATP
[2] = read-out: TBK1 inhibition (%) 1 μM, compound at 1 μM, 100 µM ATP
[3] = read-out: TBK1 inhibition (%) 10 μM, compound at 10 μM, 100 µM ATP
[4] = read-out: TBK1 inhibition (%) 10 nM, compound at 10 nM, 100 µM ATP
[5] = compound at 10 nM, 100 µM ATP, read-out: TBK1 inhibition (%) 10 nM
[6] = compound at 100 nM, 100 µM ATP, read-out: TBK1 inhibition (%) 100 nM
[7] = compound at 1 μM, 100 µM ATP, read-out: TBK1 inhibition (%) 1 μM
[8] = compound at 10 μM, 100 µM ATP, read-out: TBK1 inhibition (%) 10 μM

SMILES	inhibition at 0.1 µM [1] [%]	inhibition at 1 µM [2] [%]	inhibition at 10 µM [3] [%]	inhibition at 0.01 µM [5] [%]	inhibition at 0.1 µM [6] [%]	inhibition at 1 µM [7] [%]	IC50 (100 µM ATP) [nM]	also measured
CN1CCN(Cc2ccc(-c3cnc4[nH]nc(NCc5ccccc5)c4c3)cc2)CC1 [Compound 12a]	-14.5	-13.6	-8					
CN1CCN(Cc2ccc(-c3cnc4[nH]nc(NCCc5ccccc5)c4c3)cc2)CC1 [Compound 12b]	7.3	5.9	3.2					
CN1CCN(Cc2ccc(-c3cnc4[nH]nc(NCc5ccc(Cl)cc5Cl)c4c3)cc2)CC1 [Compound 12c]	-30.1	-6.7	-2					
CN1CCN(Cc2ccc(-c3cnc4[nH]nc(NCCCc5ccccc5)c4c3)cc2)CC1 [Compound 12d]	-5.6	-5.8	-4.7					
CN1CCN(Cc2ccc(-c3cnc4[nH]nc(NCCc5ccc(F)cc5)c4c3)cc2)CC1 [Compound 12e]	-1.4	-2.4	-5					
COc1ccc(CCNc2n[nH]c3ncc(-c4ccc(CN5CCN(C)CC5)cc4)cc23)cc1 [Compound 12f]	-9.7	-7.9	-0.5					
CN1CCN(Cc2ccc(-c3cnc4[nH]nc(NCCCN5CCOCC5)c4c3)cc2)CC1 [Compound 12h]	-7.8	-4.3	-5.2					
CN1CCN(Cc2ccc(-c3cnc4[nH]nc(NCCCn5ccnc5)c4c3)cc2)CC1 [Compound 12i]	15.2	19.9	7.1					inhibition at 0.01 µM [4]: 16.2%
CN1CCN(Cc2ccc(-c3cnc4[nH]nc(-c5ccc6[nH]ccc6c5)c4c3)cc2)CC1 [Compound 15a]	13.2	36.5	83					
CC(C)n1c(C(F)(F)F)nc2c(F)cc(-c3n[nH]c4ncc(-c5cccc(S(N)(=O)=O)c5)cc34)cc21 [Compound 15aa]	36.8	48.3						inhibition at 0.01 µM [4]: 14.1%
Cc1nc2c(F)cc(-c3c[nH]c4ncc(-c5ccc(S(N)(=O)=O)cc5)cc34)cc2n1C(C)C [Compound 15ab]				70.9	72.9	90.3	3.6	fold reduced activity against TBK1 compared to 15t (compared to 15t): 8 fold; inhibition at 0.0001 µM (compound at 0.1 nM, 100 µM ATP, read-out: TBK1 inhibition (%) 0.1 nM): 43.1%; inhibition at 0.001 µM (100 µM ATP): 60.1%
CN1CCN(Cc2ccc(-c3cnc4[nH]nc(-c5cccc(N)c5)c4c3)cc2)CC1 [Compound 15b]	11	14.3	47.9					
CN1CCN(Cc2ccc(-c3cnc4[nH]nc(-c5ccc(N)cc5)c4c3)cc2)CC1 [Compound 15c]	38.3	47.8	86.8					
CN1CCN(Cc2ccc(-c3cnc4[nH]nc(-c5ccc6[nH]cnc6c5)c4c3)cc2)CC1 [Compound 15d]				18	52.5	84.1	131	inhibition at 10 µM [8]: 102%
CC(C)n1cnc2ccc(-c3n[nH]c4ncc(-c5ccc(CN6CCN(C)CC6)cc5)cc34)cc21 [Compound 15e]				14.3	62.8	104	75.3	inhibition at 10 µM [8]: 108%
CN1CCN(Cc2ccc(-c3cnc4[nH]nc(-c5cccc6cnccc56)c4c3)cc2)CC1 [Compound 15f]					28.7	81.4	290	inhibition at 10 µM [8]: 101%
CC(C)n1cnc2ccc(-c3n[nH]c4ncc(-c5ccc(C(=O)N6CCN(C)CC6)cc5)cc34)cc21 [Compound 15g]				29.9	91.7	108	26	inhibition at 0.001 µM (100 µM ATP): 8.6%; inhibition at 10 µM [8]: 108%
CC(C)n1cnc2ccc(-c3n[nH]c4ncc(-c5ccc(C(N)=O)cc5)cc34)cc21 [Compound 15h]				29.1	75.6	104	58.9	inhibition at 0.001 µM (100 µM ATP): 24%; inhibition at 10 µM [8]: 103%
CC(C)n1cnc2ccc(-c3n[nH]c4ncc(-c5ccc(S(N)(=O)=O)cc5)cc34)cc21 [Compound 15i]				62.3	75.4	105	8.5	fold lower TBK1 IC50 than compound 15e (compared with 15e): ~10 times; inhibition at 0.001 µM (100 µM ATP): 47.3%; inhibition at 10 µM [8]: 111%
CC(=O)Nc1cc(-c2cnc3[nH]nc(-c4ccc5ncn(C(C)C)c5c4)c3c2)ccn1 [Compound 15j]				31.5	67.1	104	67.2	inhibition at 0.001 µM (100 µM ATP): 14.2%; inhibition at 10 µM [8]: 103%
COC(=O)c1cccc(-c2cnc3[nH]nc(-c4ccc5ncn(C(C)C)c5c4)c3c2)c1 [Compound 15k]				19.5	45	82.6	288	inhibition at 10 µM [8]: 106%
NS(=O)(=O)c1ccc(-c2cnc3[nH]nc(-c4cnn(C5CCOCC5)c4)c3c2)cc1 [Compound 15l]	-7.2	-0.6	21.9					
NS(=O)(=O)c1ccc(-c2cnc3[nH]nc(-c4ccc(N5CCOCC5)cc4)c3c2)cc1 [Compound 15m]	-8.9	-6	-11					
NS(=O)(=O)c1ccc(-c2cnc3[nH]nc(-c4cnn(CCN5CCOCC5)c4)c3c2)cc1 [Compound 15n]	-8.9	-15	-12.5					
NS(=O)(=O)c1ccc(-c2cnc3[nH]nc(-c4cnn(CCO)c4)c3c2)cc1 [Compound 15o]	-2.7	-7.4	23.3					
Cc1nc2c(F)cc(-c3n[nH]c4ncc(-c5ccc(S(N)(=O)=O)cc5)cc34)cc2o1 [Compound 15p]	30.6	37.1	41.1					inhibition at 0.01 µM [4]: 32%
NS(=O)(=O)c1ccc(-c2cnc3[nH]nc(-c4cc(F)c5cn[nH]c5c4)c3c2)cc1 [Compound 15q]	12.7	25.5	83.9					inhibition at 0.01 µM [4]: 4.5%
Cc1nc2cc(-c3n[nH]c4ncc(-c5ccc(S(N)(=O)=O)cc5)cc34)cc(F)c2o1 [Compound 15r]	10.8	5.7	56.8					inhibition at 0.01 µM [4]: -2.6%
Cc1nc2ccc(-c3n[nH]c4ncc(-c5ccc(S(N)(=O)=O)cc5)cc34)cc2n1C(C)C [Compound 15s]				68.6	76.9	97.2	6.2	inhibition at 0.001 µM (100 µM ATP): 45.5%

Reference: publication PMC9132415, “Identification of 1H-pyrazolo[3,4-b]pyridine derivatives as novel and potent TBK1 inhibitors: design, synthesis, biological evaluation, and molecular docking study” (Journal of Enzyme Inhibition and Medicinal Chemistry, 2022)
